Values after ≈ are worked out from the molar mass of the structure shown. Read-outs that look alike come from different tables or passages of the source.
How the values were obtained:
Type in all cases: cell-based
[1] = system: spores of ATCC BBA1870 strain; assay: Inhibition of germination of C. difficile spores (MIC), strain ATCC BBA1870; settings: Clostridioides difficile, ATCCBBA1870STRAIN, 1 h, read-out: MIC (minimum concentration that completely inhibits spore germination)
Method: (§1) According to a method disclosed in “The Journal of Infectious Diseases. 2013; 207: 1498-504”, spores of ATCC BBA1870, ATCC 43255 and ATCC 630 strains were obtained by culture and purification, and stored at 4° C.
(§2) Spore preparation: the C. difficile spores stored at 4° C. were heat-activated for 30 min at 65° C., centrifuged at 9,400 g for 2 min, and washed three times to remove any self-germinating spores.
(§3) Control drug: three cholic acid derivatives, a compound CamSA, a compound 20β (prepared by the method of “Journal of Medicinal Chemistry. 2017, 60 (8): 3451-3471”), and a compound 12a (prepared by the method of “Journal of Medicinal Chemistry. 2018, 61, 6759-6778”), were used as control drugs.
(§4) Compound preparation: the compound of the present disclosure, and the positive control drugs CamSA, 20β, and 12a were dissolved in DMSO, to prepare a stock solution with a concentration of 10 mM (prepared for immediate use).
(§5) The detection was conducted in a 96-well cell culture plate at a constant temperature of 37° C.; a final volume of each well of the 96-well plate was […] and a buffer was the BHIS medium; 150 μl of spores and drugs were added to the well in advance, and 50 μl of 4 mg/ml sodium taurocholate was added; OD580 was detected every 1 min immediately using a microplate reader, for continuously 60 min. A germination agent control group and a non-germination group were set up; after the detection, a final OD value of each well was compared with an initial value, and compared with the germination agent group to calculate a germination rate and an inhibition rate. A formula for the germination rate was:
(§6) Inhibition rate=100%−germination rate.

[2] = system: spores of ATCC 43255 strain; assay: Inhibition of germination of C. difficile spores (MIC), strain ATCC 43255; settings: Clostridioides difficile, ATCC43255, 1 h, read-out: MIC (minimum concentration that completely inhibits spore germination)
Method: as §1, §2, §3, §4, §5, §6

[3] = system: spores of ATCC 630 strain; assay: Inhibition of germination of C. difficile spores (MIC), strain ATCC 630; settings: Clostridioides difficile, ATCC630, 1 h, read-out: MIC (minimum concentration that completely inhibits spore germination)
Method: as §1, §2, §3, §4, §5, §6

[4] = strain 1870, sodium taurocholate as germinant, BHIS medium, 37° C., OD580 for 60 min
[5] = strain 43255, sodium taurocholate as germinant, BHIS medium, 37° C., OD580 for 60 min
[6] = strain 630, sodium taurocholate as germinant, BHIS medium, 37° C., OD580 for 60 min

Compound	MIC [1, 4]	MIC [2, 5]	MIC [3, 6]	MIC [1]	MIC [2]	MIC [3]
CC(C)[C@@H](NC(=O)C[C@@H](C)[C@H]1CC[C@H]2[C@@H]3[C@H](OP(=O)(O)O)C[C@@H]4CC(=O)CC[C@]4(C)[C@H]3CC[C@]12C)c1ccc(Cl)s1 [Compound I-193]	64 µM (≈ 40.2 µg/mL)	64 µM (≈ 40.2 µg/mL)	64 µM (≈ 40.2 µg/mL)			
CC[C@@H](NC(=O)C[C@@H](C)[C@H]1CC[C@H]2[C@@H]3[C@H](O)CC4=CC(=O)CC[C@]4(C)[C@H]3CC[C@]12C)c1ccc(Cl)s1 [Compound I-157-2]	0.25 µM (≈ 0.133 µg/mL)	0.5 µM (≈ 0.266 µg/mL)	0.25 µM (≈ 0.133 µg/mL)			
CC[C@@H](NC(=O)C[C@@H](C)[C@H]1CC[C@H]2[C@@H]3[C@H](OP(=O)(O)O)C[C@@H]4CC(=O)CC[C@]4(C)[C@H]3CC[C@]12C)c1ccc(Br)s1 [Compound I-192]	64 µM (≈ 42.2 µg/mL)	64 µM (≈ 42.2 µg/mL)	64 µM (≈ 42.2 µg/mL)			
CCC(NC(=O)C[C@@H](C)[C@H]1CC[C@H]2[C@@H]3[C@H](O)[C@H](O)[C@@H]4C[C@H](O)CC[C@]4(C)[C@H]3CC[C@]12C)c1ccc(Br)s1 (stereo partly drawn) [Compound I-118]	16 µM (≈ 9.55 µg/mL)	8 µM (≈ 4.77 µg/mL)	8 µM (≈ 4.77 µg/mL)			
CCC(NC(=O)C[C@@H](C)[C@H]1CC[C@H]2[C@@H]3C[C@H](O)[C@@H]4C[C@H](O)CC[C@]4(C)[C@H]3CC[C@]12C)c1cccs1 (stereo partly drawn) [Compound I-125]	2 µM (≈ 1 µg/mL)	2 µM (≈ 1 µg/mL)	2 µM (≈ 1 µg/mL)			
CC[C@@H](NC(=O)C[C@@H](C)[C@H]1CC[C@H]2[C@@H]3C(=O)C[C@@H]4CC(=O)CC[C@]4(C)[C@H]3CC[C@]12C)c1ccc(N(C)C)s1 [Compound I-203]				32 µM (≈ 17.3 µg/mL)	32 µM (≈ 17.3 µg/mL)	16 µM (≈ 8.65 µg/mL)
CC[C@@H](NC(=O)C[C@@H](C)[C@H]1CC[C@H]2[C@@H]3C(=O)C[C@@H]4CC(=O)CC[C@]4(C)[C@H]3CC[C@]12C)c1ccc(Br)s1 [Compound I-72]	1 µM (≈ 0.577 µg/mL)	1 µM (≈ 0.577 µg/mL)	0.5 µM (≈ 0.288 µg/mL)			
CCC(NC(=O)C[C@@H](C)[C@H]1CC[C@H]2[C@@H]3[C@H](O)C[C@@H]4CC(=O)CC[C@]4(C)[C@H]3CC[C@]12C)c1ccc(Cl)s1 (stereo partly drawn) [Compound I-86]	0.5 µM (≈ 0.267 µg/mL)	0.5 µM (≈ 0.267 µg/mL)	0.5 µM (≈ 0.267 µg/mL)			
Cc1ccsc1C(C)NC(=O)C[C@@H](C)[C@H]1CC[C@H]2[C@@H]3C(=O)C[C@@H]4CC(=O)CC[C@]4(C)[C@H]3CC[C@]12C (stereo partly drawn) [Compound I-31]	8 µM (≈ 3.98 µg/mL)	8 µM (≈ 3.98 µg/mL)	8 µM (≈ 3.98 µg/mL)			
C[C@H](CC(=O)NCC1CC1)[C@H]1CC[C@H]2[C@@H]3[C@@H](O)C[C@@H]4C[C@H](O)CC[C@]4(C)[C@H]3CC[C@]12C [Compound I-10]	32 µM (≈ 13.8 µg/mL)	32 µM (≈ 13.8 µg/mL)	32 µM (≈ 13.8 µg/mL)			
CC(C)[C@@H](NC(=O)C[C@@H](C)[C@H]1CC[C@H]2[C@@H]3C(=O)C[C@@H]4CC(=O)CC[C@]4(C)[C@H]3CC[C@]12C)c1ccc(S(=O)(=O)O)s1 [Compound I-83]	16 µM (≈ 9.47 µg/mL)	16 µM (≈ 9.47 µg/mL)	16 µM (≈ 9.47 µg/mL)			
CC[C@H](NC(=O)C[C@@H](C)[C@H]1CC[C@H]2[C@@H]3[C@H](O)C[C@@H]4CC(=O)CC[C@]4(C)[C@H]3CC[C@]12C)c1ccc(S(=O)(=O)O)s1 [Compound I-93]	> 256 µM	> 256 µM	> 256 µM			
CC(C)[C@@H](NC(=O)C[C@@H](C)[C@H]1CC[C@H]2[C@@H]3C[C@H](O)[C@@H]4C[C@H](O)CC[C@]4(C)[C@H]3CC[C@]12C)c1ccc(Br)s1 [Compound I-128]	2 µM (≈ 1.19 µg/mL)	2 µM (≈ 1.19 µg/mL)	1 µM (≈ 0.595 µg/mL)			
CC(C)[C@@H](NC(=O)C[C@@H](C)[C@H]1CC[C@H]2[C@@H]3[C@H](O)C[C@@H]4C[C@H](O)CC[C@]4(C)[C@H]3C[C@H](O)[C@]12C)c1ccc(Cl)s1 [Compound I-146]	16 µM (≈ 9.06 µg/mL)	16 µM (≈ 9.06 µg/mL)	16 µM (≈ 9.06 µg/mL)			
CC(NC(=O)C[C@@H](C)[C@H]1CC[C@H]2[C@@H]3[C@H](O)C[C@@H]4C[C@H](O)CC[C@]4(C)[C@H]3CC[C@]12C)c1ccccc1 (stereo partly drawn) [Compound I-9]	8 µM (≈ 3.85 µg/mL)	8 µM (≈ 3.85 µg/mL)	8 µM (≈ 3.85 µg/mL)			
CC(=O)O[C@@H]1C[C@@H]2CC(=O)CC[C@]2(C)[C@H]2CC[C@]3(C)[C@@H]([C@H](C)CC(=O)N[C@@H](c4ccc(Cl)s4)C(C)C)CC[C@H]3[C@H]12 [Compound I-177]	0.5 µM (≈ 0.295 µg/mL)	1 µM (≈ 0.59 µg/mL)	0.5 µM (≈ 0.295 µg/mL)			
CC[C@@H](NC(=O)C[C@@H](C)[C@H]1CC[C@H]2[C@@H]3[C@H](N)C[C@@H]4CC(=O)CC[C@]4(C)[C@H]3CC[C@]12C)c1ccc(Cl)s1 [Compound I-172]	32 µM (≈ 17.1 µg/mL)	32 µM (≈ 17.1 µg/mL)	32 µM (≈ 17.1 µg/mL)			
C[C@H](CC(=O)NCc1cccs1)[C@H]1CC[C@H]2[C@@H]3C(=O)C[C@@H]4C[C@H](O)CC[C@]4(C)[C@H]3CC[C@]12C [Compound I-14]	4 µM (≈ 1.89 µg/mL)	4 µM (≈ 1.89 µg/mL)	4 µM (≈ 1.89 µg/mL)			
CC(C)[C@H](NC(=O)C[C@@H](C)[C@H]1CC[C@H]2[C@@H]3C(=O)C[C@@H]4CC(=O)CC[C@]4(C)[C@H]3CC[C@]12C)c1ccc(Cl)s1 [Compound I-76]	> 256 µM	> 256 µM	> 256 µM			
CC[C@@H](NC(=O)C[C@@H](C)[C@H]1CC[C@H]2[C@@H]3[C@H](O)C[C@@H]4CC(=O)CC[C@]4(C)[C@H]3CC[C@]12C)c1ccc(S(=O)(=O)O)s1 [Compound I-94]	8 µM (≈ 4.64 µg/mL)	16 µM (≈ 9.28 µg/mL)	8 µM (≈ 4.64 µg/mL)			
CC(C)[C@@H](NC(=O)C[C@@H](C)[C@H]1CC[C@H]2[C@@H]3C(=O)CC4=CC(=O)CC[C@]4(C)[C@H]3CC[C@]12C)c1ccc(Br)s1 [Compound I-152]	1 µM (≈ 0.589 µg/mL)	1 µM (≈ 0.589 µg/mL)	0.5 µM (≈ 0.294 µg/mL)			
CC(C)C(NC(=O)C[C@@H](C)[C@H]1CC[C@H]2[C@@H]3C(=O)C[C@@H]4CC(=O)CC[C@]4(C)[C@H]3CC[C@]12C)c1ccc(S(=O)(=O)O)s1 (stereo partly drawn) [Compound I-81]	32 µM (≈ 18.9 µg/mL)	32 µM (≈ 18.9 µg/mL)	32 µM (≈ 18.9 µg/mL)			
CC[C@@H](NC(=O)C[C@@H](C)[C@H]1CC[C@H]2[C@@H]3C(=O)C[C@@H]4CC(=O)CC[C@]4(C)[C@H]3CC[C@]12C)c1ccc(S(=O)(=O)O)s1 [Compound I-74]	16 µM (≈ 9.24 µg/mL)	16 µM (≈ 9.24 µg/mL)	16 µM (≈ 9.24 µg/mL)			
C[C@H](CC(=O)N[C@H](c1cccs1)C1CC1)[C@H]1CC[C@H]2[C@@H]3C(=O)C[C@@H]4CC(=O)CC[C@]4(C)[C@H]3CC[C@]12C [Compound I-49]	> 256 µM	> 256 µM	> 256 µM			
C[C@H](CC(=O)NCc1ccccn1)[C@H]1CC[C@H]2[C@@H]3C(=O)C[C@@H]4C[C@H](O)CC[C@]4(C)[C@H]3CC[C@]12C [Compound I-16]	256 µM (≈ 119 µg/mL)	256 µM (≈ 119 µg/mL)	256 µM (≈ 119 µg/mL)			
CC[C@@H](NC(=O)C[C@@H](C)[C@H]1CC[C@H]2[C@@H]3[C@@H](O)C[C@@H]4C[C@H](O)CC[C@]4(C)[C@H]3CC[C@]12C)c1ccc(Cl)s1 [Compound I-141]	32 µM (≈ 17.2 µg/mL)	32 µM (≈ 17.2 µg/mL)	32 µM (≈ 17.2 µg/mL)			

From patent publication US20230135729A1, “COMPOUND WITH ANTI-SPORE ACTIVITY AND PHARMACEUTICAL COMPOSITION THEREOF” (priority 2020, published 2023)
